Test results reported in PubChem BioAssay (NCI).
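Dose response: 5 concentrations. Exposure: 48 h. Format: 96-well plates. Endpoint: linear interpolation; highest concentration if not reached. GI50 is the concentration that inhibits growth by half. TGI: concentration producing complete growth inhibition.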 *1 amine or outer side, *2 acyl side, *3 side chain or, on linkers, in order; H or OH if unused. Where a SMILES comes first, the peptide text is derived from it. Bridges are numbered along the chain shown (N, C = ends). [ ]: non-standard residue; d: D form. The star is where a group is joined. X19 = O=C([C@H](N[*:1])c1ccc(O[C@H]2O[C@@H](CO)[C@@H](O)[C@@H](O)[C@H]2O[C@@H]2O[C@H](CO)[C@H](O)[C@H](O)[C@@H]2O)cc1)[*:2]; X18 = NC(=O)[C@@H](O[*:3])[C@H](N[*:1])C(=O)[*:2]; X20 = O=C([C@H](N[*:1])c1ccc(O)c(Cl)c1)[*:2]; d(aThr) = C[C@@H](O)[C@@H](N)C(=O)O; dHpg = N[C@@H](C(=O)O)c1ccc(O)cc1; X17 = CC(C)C/C=C/C=C/C(=O)*; dOrn = NCCC[C@@H](N)C(=O)O

How the values were obtained:
Experiment in all cases: DTP human tumour cell line panel, 48 h
[1] = test system: HCT-15 colon
[2] = test system: RPMI-8226 leukemia
[3] = test system: T-47D breast
[4] = test system: KM12 colon
[5] = test system: RXF 393 renal
[6] = test system: A498 renal
[7] = test system: SF-539 CNS
[8] = test system: SK-MEL-2 melanoma
[9] = test system: NCI-H23 lung
[10] = test system: SK-MEL-28 melanoma

| SMILES | GI50 [1] [µM] | TGI [1] [µM] | GI50 [2] [µM] | TGI [2] [µM] | GI50 [3] [µM] | TGI [3] [µM] | GI50 [4] [µM] | TGI [4] [µM] | GI50 [5] [µM] | TGI [5] [µM] | GI50 [6] [µM] | TGI [6] [µM] | GI50 [7] [µM] | TGI [7] [µM] | GI50 [8] [µM] | TGI [8] [µM] | GI50 [9] [µM] | TGI [9] [µM] | GI50 [10] [µM] | TGI [10] [µM] |
| --- | --- | --- | --- | --- | --- | --- | --- | --- | --- | --- | --- | --- | --- | --- | --- | --- | --- | --- | --- | --- |
| CC(C)(C)N1CC(OC(N)=O)C1 | > 100 | > 100 | > 100 | > 100 | > 100 | > 100 | > 100 | > 100 | > 100 | > 100 | > 100 | > 100 | > 100 | > 100 | > 100 | > 100 | > 100 | > 100 | > 100 | > 100 |
| CNC(=O)c1cncc(/C=C/c2c(C)cccc2C)c1 | > 25 | > 25 | > 25 | > 25 | > 25 | > 25 | > 25 | > 25 | 13.4 | > 25 | 8.95 | > 25 | 14.5 | > 25 | > 25 | > 25 | > 25 | > 25 | > 25 | > 25 |
| C#Cc1cccc(Nc2ncnc3ccc(-c4cnc(Cl)c(NS(C)(=O)=O)c4)cc23)c1 | 0.295 | 1.97 | 0.412 | 2.66 | 0.046 | 1.2 | 0.891 | 2.55 | 0.218 | 0.996 | 0.0334 | 0.254 | 0.302 | 1.68 | 0.296 | 1.62 | 0.385 | 8.03 | 0.182 | 1.93 |
| COc1ccccc1N1CCN(C(=O)c2ccc(NS(=O)(=O)c3cccc4cccnc34)cc2)CC1 | > 100 | > 100 | > 100 | > 100 | > 22.1 | > 100 | > 100 | > 100 | 5.02 | 59.4 | > 47.6 | > 100 | > 54.4 | > 100 | > 100 | > 100 | > 67.2 | > 100 | > 100 | > 100 |
| O=C(O[C@H]1CN[C@H](C#Cc2cc3ncnc(Nc4ccc(OCc5cccc(F)c5)c(Cl)c4)c3s2)C1)N1CCOCC1 | 8.09 | > 25 | 4.48 | 17.3 | 1.55 | > 25 | 5.07 | 11.2 | 5.85 | > 16.6 | 1.76 | 8.21 | 5.09 | 12 | 7.4 | 18.7 | 9.7 | > 25 | 12.4 | > 25 |
| CC(C)C/C=C/C=C/C(=O)N[C@@H](CC(N)=O)C(=O)N[C@@H]1C(=O)N[C@H](c2ccc(O)cc2)C(=O)N[C@H](CCCN)C(=O)N[C@H]([C@@H](C)O)C(=O)N[C@H](c2ccc(O)cc2)C(=O)N[C@H](c2ccc(O)cc2)C(=O)N[C@H]([C@H](C)O)C(=O)N[C@H](Cc2ccccc2)C(=O)N[C@H](CCCN)C(=O)N[C@H](c2ccc(O[C@H]3O[C@@H](CO)[C@@H](O)[C@@H](O)[C@H]3O[C@@H]3O[C@H](CO)[C@H](O)[C@H](O)[C@@H]3O)cc2)C(=O)N[C@H]([C@H](C)O)C(=O)N[C@H](c2ccc(O)cc2)C(=O)NCC(=O)N[C@H](CC(C)C)C(=O)N[C@H](C)C(=O)N[C@H](c2ccc(O)c(Cl)c2)C(=O)O[C@@H]1C(N)=O (X17-N[X18][dHpg][dOrn][d(aThr)][dHpg][dHpg][dT][dF][dOrn][X19][dT][dHpg]G[dL][dA][X20]; ester 2-C) | 30.3 | > 100 | 59.8 | > 100 | 34.6 | 98.9 | 27.8 | > 100 | 86 | > 100 | 80.9 | > 100 | 22.8 | 60.9 | > 100 | > 100 | 25.8 | 88.9 | 23.6 | 47.8 |
| COc1cccc(-c2nc(-c3ccc(NC(=O)c4ccccc4)cc3)[nH]c2-c2ccnc(Br)c2)c1 | 0.78 | 3.28 | 0.398 | 2.11 | 2.44 | > 100 | 2.29 | > 100 | 0.266 | 0.81 | 1.74 | 6.5 | 1.59 | 12.6 | 2.93 | > 100 | 2.82 | > 100 | 3 | > 100 |
| CN(C1=NS(=O)(=O)N=C(N(C)c2ccccc2)O1)c1ccccc1 |  | 39.2 |  | 43.9 |  | 45.5 |  | 34.4 |  | 20.4 |  | 42.1 |  | 39.3 |  | 38 |  | 28.3 |  | 43.3 |
| CCC1CCCCN1C(=S)N/N=C(\C)c1ccccn1 (stereo not given) | 0.0269 | 3.3 | 0.0423 | 1.89 | < 0.0146 | 1.63 | 0.0732 | 1.52 | 0.488 | 1.91 | 0.136 | 1.93 | 0.171 | 2.45 | 0.0733 | 1.65 | 0.0365 | 5.01 | 0.561 | 4.65 |
| COc1cc(C)[nH]c(=O)c1CN1CCc2c(Cl)cc([C@H](OC)C3COC3)c(Cl)c2C1=O | > 100 | > 100 | > 100 | > 100 | 55.4 | > 100 | > 100 | > 100 | > 100 | > 100 | > 100 | > 100 | > 100 | > 100 | > 100 | > 100 | > 100 | > 100 | > 100 | > 100 |
| O=C1CC2C(=O)C1C(C(=O)O)C2C(=O)O (stereo not given) |  | > 100 |  | > 100 |  | > 100 |  | > 100 |  | > 100 |  | > 100 |  | > 100 |  | > 100 |  | > 100 |  | > 100 |
| C=C1SC(=Nc2ccccc2Cl)N(C(=O)c2sc3ccccc3c2Cl)C1(C)C | 4.94 | > 57.5 | 2.44 |  | 3.09 | 26.8 | 4.01 | > 51.9 | 16.6 | > 86.5 | 4.04 | > 57.5 | 14 | > 100 | 8.83 | 31.9 | 4.41 | > 100 | 37.2 | > 100 |
| O=C1c2cccc3cc([N+](=O)[O-])cc(c23)C(=O)N1CCN1CCCC1 | 0.334 |  | 0.203 | 1.27 | 0.302 | 2.28 | 0.551 | 9.02 | 0.839 | 3.01 | 0.319 | 1.65 | 0.487 | 2.04 | 1.88 | 4.45 | 0.466 | 4.3 | 1.3 | 2.9 |
| COc1ccc(-c2nc(N)c3ncn(C4OC(CO)C(O)C4O)c3n2)cc1 (stereo not given) |  | > 100 |  | > 100 |  | > 100 |  | > 100 |  | > 100 |  | > 100 |  | > 100 |  | > 100 |  | > 100 |  | > 100 |
| CCCCNC(=O)Oc1ccc2c(=O)c3sc4c(=O)c5ccccc5c(=O)c4c3c(=O)c2c1 | 0.16 | 0.36 | 1.16 | 4.42 | 2.11 | 5.4 | 2 | 9.21 | 1.2 | 2.54 | 1.04 | 2.22 | 0.235 | 0.767 | 1.37 | 3.3 | 0.188 | 0.583 | 0.224 | 0.524 |
| CN(C)c1ccc2cc(-c3cc4c(oc3=O)-c3ccccc3OC4O)c(=O)oc2c1 (stereo not given) | 3.81 | 8.9 | 0.439 | 4.71 | 1.01 | 8.55 | 6.05 | 16.2 | 2.69 | 6.53 | 5.67 | 23.5 | 6.83 | > 25 | 3.03 | 7.53 | 1.41 | 13.4 | 8.24 | > 25 |
| CC1OC(O[C@H]2/C=C/C=C/C=C/C=C/C=C/C=C/C=C/[C@H](C)[C@@H](O)[C@@H](C)[C@H](C)OC(=O)C[C@H](O)C[C@H](O)CC[C@@H](O)[C@H](O)C[C@H](O)C[C@]3(O)C[C@H](O)[C@@H](C(=O)O)[C@H](C2)O3)C(O)C(N)C1O (stereo not given in full) | 44.7 | 60.9 | 23.9 | 60.3 | 52.3 | > 86.8 |  | 42.6 |  | 18.2 | 10.4 | 25 | 19.3 | 47.3 |  | 59.3 | 14.3 | 34.5 | 12 | 35.2 |
| O=C(Nc1ccc(Cl)cc1)c1cc2cc(F)ccc2cc1O | 1.78 | > 100 | 0.591 | 7.16 | 0.941 | 5.36 | 2.74 | > 100 | 3 | 16.1 | 0.553 | 2.74 | 1.26 | 14.3 | 0.672 | 2.74 | 0.929 | 7.33 | 1.75 | > 100 |
| COc1ccc(C(=O)C(Br)C(Br)C(=O)O)cc1 (stereo not given) |  | > 100 |  | 53.2 |  | > 100 |  | > 100 |  | 56.4 |  | > 100 |  | 51.8 |  | > 100 |  | > 100 |  | > 100 |
| N=C1C(c2nc3ccccc3s2)=C(O)CN1c1ccc(Cl)cc1Cl | 3.65 | 22 | 18.9 | 62.1 | 44.9 | > 100 | 11.7 | 65.7 | 10.8 | 36.1 | 12.5 | 50.7 | 7.62 | 26.7 | 27.6 | 96.6 | 2.59 | 6.6 | 21 | > 100 |
| O=S(=O)(NCCCNc1cc(-c2cn(-c3ccccc3)nc2-c2cccc(O)c2)ccn1)c1cccc2ccccc12 | 1.8 | 6.59 | 1.85 | 7.89 | 2.14 | 8.53 | 2.49 | 7.57 | 1.18 | 5.04 | 1.09 | 6.62 | 2.43 | 20.2 | 2.45 | 6.25 | 2.89 | > 100 | 2.37 | 7.33 |
| NCC1OC(n2cnc3c(=O)[nH]c(N)nc32)C(O)C1O (stereo not given) |  | > 100 |  | > 63.8 |  | > 100 |  | > 100 |  | > 100 |  | > 100 |  | > 100 |  | > 100 |  | > 100 |  | > 100 |
| Cc1cccc2c1NC(=O)[C@@]21[C@H](C(=O)c2ccccc2)[C@]2(C(=O)Nc3ccccc32)[C@H]2CCCN21 | 25.1 | > 100 | > 100 | > 100 | 20.9 | > 100 | 58.9 | > 100 | 13.5 | 47.5 | > 100 | > 100 | 18.6 | 48.9 | 50.5 | > 100 | 47 | > 100 | 34.3 | > 100 |
| O=c1ccccc(-c2ccc(-c3ccco3)cc2)c1O | 0.373 | 41.2 | 0.756 | > 100 | 1.56 | 80.3 | 0.743 | 17.5 | 0.951 | 17.2 | 3.46 | 25.9 | 0.703 | 6.38 | 10.5 | 44.2 | 1.22 | 15 | 0.79 | 17.8 |
